pIC50: −log10 of the molar value.
Experiments:
[1] = biological target: Lipoxygenase (Glycine max) (UniProt Q39829); assay: Inhibition of soybean LOX assessed as reduction in conversion of sodium linoleate to 13-hydroperoxylinoleic acid at 100 uM by UV spectroscopy
[2] = Antioxidant activity assessed as inhibition of AAPH-induced linoleic acid lipid peroxidation at 100 uM; type: physicochemical
[3] = Antioxidant activity assessed as DPPH radical scavenging activity at 100 uM after 20 mins by spectrophotometry; type: physicochemical
[4] = Antioxidant activity assessed as DPPH radical scavenging activity at 100 uM after 60 mins by spectrophotometry; type: physicochemical; conditions: 1 h
[5] = biological target: Lipoxygenase (Glycine max, UniProt Q39829); assay: Inhibition of soybean LOX assessed as reduction in conversion of sodium linoleate to 13-hydroperoxylinoleic acid by UV spectroscopy; conditions: for pIC50: read-out: IC50

| inhibition [1] | inhibition (INH) [2] | inhibition (INH) [3] | inhibition (INH) [4] | pIC50 [5] | IC50 [5] | Compound |
| --- | --- | --- | --- | --- | --- | --- |
| 28% | 55% | 85% | 86% |  |  | COc1ccc(-c2c(C)c3cc(Br)ccc3o/c2=N/Nc2ccccc2)cc1OC |
|  | 56% | 11% | 12% | 4.09 |  | COc1ccc(-c2cc3cc(Br)ccc3oc2=O)cc1OC |
|  | 63% |  |  |  |  | Cc1c(C)c2c(c(C)c1O)CCC(C)(C(=O)O)O2 (configuration not stated) [TROLOX] |
|  | 58% | 13% | 2% |  |  | COc1ccc(-c2c(C)c3cc(Br)cc(Br)c3oc2=O)cc1OC |
| 1% | 64% | 11% | 68% |  |  | COc1ccc(-c2c(C)c3cc(-c4ccc(C=O)cc4)ccc3oc2=O)cc1OC |
|  | 50% | Not Active | 9% |  | Not Active | COc1ccc(-c2c(C)c3cc(Cl)ccc3oc2=S)cc1OC |
|  | 47% | 84% | 85% |  | Not Active | COc1ccc(-c2c(C)c3ccccc3o/c2=N/Nc2ccccc2)cc1 |
|  |  | 84% | 83% | 4.29 |  | CC(Cc1ccc(O)c(O)c1)C(C)Cc1ccc(O)c(O)c1 (configuration not stated) [NORDIHYDROGUAIARETIC ACID] |
| 26% | 26% | 78% | 80% |  |  | O=c1oc2ccc(Br)cc2cc1-c1ccc(O)c(O)c1 |
| 7% | 75% | 76% | 78% |  |  | Cc1c(-c2ccc(O)c(O)c2)c(=O)oc2c(Br)cc(Br)cc12 |
| 35% | 11% | 14% | 11% |  |  | COc1ccc(-c2c(C)c3ccccc3oc2=S)cc1 |
|  | 75% | 77% | 62% | 4.12 |  | Cc1c(-c2ccc(O)c(O)c2)c(=O)oc2ccc(Br)cc12 |
|  | 99% | Not Active | 5% | 4.40 |  | CC(C)=CCOc1ccc(-c2cc3cc(Br)ccc3oc2=O)cc1OCC=C(C)C |
|  | 100% | Not Active | 9% | 4.43 |  | CC(C)=CCOc1ccc(-c2c(C)c3cc(Br)cc(Br)c3oc2=O)cc1OCC=C(C)C |
| 44% | 7% | 17% | 7% |  |  | COc1ccc(-c2ccc3oc(=O)c(-c4ccc(OC)c(OC)c4)c(C)c3c2)cc1 |
|  | 59% | 41% | 35% | 4.05 |  | Cc1c(-c2ccc(O)c(O)c2)c(=S)oc2ccc(Br)cc12 |
|  | 92% | 67% | 68% | 4.12 |  | CC(C)=CCOc1ccc(-c2c(C)c3cc(Br)ccc3oc2=O)cc1OCC=C(C)C |
|  | 96% | 26% | 21% | 4.19 |  | COc1ccc(-c2c(C)c3cc(Br)ccc3oc2=S)cc1OC |

From ChEMBL document CHEMBL3352712, “Structural modifications of coumarin derivatives: Determination of antioxidant and lipoxygenase (LOX) inhibitory activity” (Bioorg Med Chem, 2014)
